Results: patent US11021478B2, “Indolizine derivatives and their application in medicine” (Kind Pharmaceutical, priority 2017, dated 2021)

Experiments:
hemoglobin in mice = experiment: Effect of compounds of Examples on hemoglobin in mice; type: in vivo; conditions: male C57B1/6 mice, 3 times each week for 2 weeks, 6 hours after last administration minus before first administration
Protocol: Male C57B1/6 mice of 8-10 weeks (Shanghai Slack Laboratory Animals Co., Ltd.) were administrated orally the test compounds in 30 mg/kg for 2 weeks, 3 times each week and Roxadustat (CAS: 808118-40-3) was administrated in an amount of 60 mg/kg as a positive control. Before the first administration and 6 hours after the last administration, about 30 μl of blood was taken from the mandibular vein, and the hemoglobin content was measured by Hemocue hemoglobin analyzer. The hemoglobin elevation was calculated as the value obtained by subtracting the first hemoglobin content from the hemoglobin content after the last administration.
In addition, hemoglobin elevation was also tested in the same manner for Roxadustat as a positive control. Roxadustat was purchased from Selleckchem, which was known to be a potent inhibitor of HIF prolyl hydroxylase in the art and be able to increase hemoglobin production.

[1] = target: HIF prolyl hydroxylase-2 (HIF-PHD2) (Homo sapiens (Human), UniProt Q9GZT9); experiment: Effect of compounds on activities of HIF prolyl hydroxylase-2 (hydroxylation of immobilized HIF-1α556-574 peptide, Eu-VBC binding, OD 450 nm); type: biochemical; conditions: HIF-PHD2, biotinyl-HIF-1α556-574 substrate; representative, relative values
HIF prolyl hydroxylase-2 (HIF-PHD2), sequence (Q9GZT9 whole entry, species assumed): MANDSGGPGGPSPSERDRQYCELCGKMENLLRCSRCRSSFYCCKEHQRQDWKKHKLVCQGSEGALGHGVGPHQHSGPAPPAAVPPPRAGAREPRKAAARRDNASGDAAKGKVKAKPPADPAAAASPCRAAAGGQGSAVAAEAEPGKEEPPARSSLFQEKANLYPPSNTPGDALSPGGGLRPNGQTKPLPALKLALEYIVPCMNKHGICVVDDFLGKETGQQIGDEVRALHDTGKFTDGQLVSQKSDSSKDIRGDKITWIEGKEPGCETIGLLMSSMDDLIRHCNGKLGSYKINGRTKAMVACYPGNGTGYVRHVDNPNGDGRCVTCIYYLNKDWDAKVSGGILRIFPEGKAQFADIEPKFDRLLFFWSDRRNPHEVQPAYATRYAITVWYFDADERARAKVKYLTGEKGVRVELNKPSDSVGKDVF

Row | SMILES | Hemoglobin elevation (hemoglobin in mice; oral 30 mg/kg) | IC50 [1] | Hemoglobin elevation (hemoglobin in mice; positive control, 60 mg/kg)
1 | CC1(C)C(O)=C(C(=O)NCC(=O)O)C(=O)c2cccn21 [Example 4, (6-Hydroxy-5,5-dimethyl-8-oxo-5,8-dihydroindolizin-7-carbonyl) glycine] | 0.8 g/dL | – | –
2 | O=C(O)CNC(=O)C1=C(O)C2(CCCCC2)n2c(ccc2-c2ccccc2)C1=O [Example 35, (6′-Hydroxy-8′-oxo-3′-phenyl-8′H-spiro[cyclohexane-1,5′-indolizine]-7′-carbonyl)glycine] | 2.5 g/dL | – | –
3 | O=C(O)CNC(=O)C1=C(O)C2(CCC2)n2c(ccc2-c2ccccc2)C1=O [Example 39, (6′-Hydroxy-8′-oxo-3′-phenyl-8′H-spiro[cyclobutane-1,5′-indolizine]-7′-carbonyl)glycine] | 4.8 g/dL | – | –
4 | C[C@H](NC(=O)C1=C(O)C2(CCC2)n2cccc2C1=O)C(=O)O [Example 7, (6′-Hydroxy-8′-oxo-8′H-spiro[cyclobutane-1,5′-indolizine]-7′-carbonyl)-L-alanine] | 0.7 g/dL | – | –
5 | O=C(O)CNC(=O)C1=C(O)C2(CCCC2)n2cccc2C1=O [Example 8, (6′-Hydroxy-8′-oxo-8′H-spiro[cyclopentane-1,5′-indolizine]-7′-carbonyl)glycine] | 3.1 g/dL | – | –
6 | CCOC(=O)CNC(=O)C1=C(O)C2(CCCC2)n2cccc2C1=O [Example 10, (6′-Hydroxy-8′-oxo-8′H-spiro[cyclopentane-1,5′-indolizine]-7′-carbonyl)glycine ethyl ester] | 1.9 g/dL | > 10 µM | –
7 | C[C@H](NC(=O)C1=C(O)C(C)(C)n2cccc2C1=O)C(=O)O [Example 5, (6-Hydroxy-5,5-dimethyl-8-oxo-5,8-dihydroindolizin-7-carbonyl)-L-alanine] | 1.0 g/dL | – | –
8 | C[C@H](NC(=O)C1=C(O)C2(CCCCC2)n2cccc2C1=O)C(=O)O [Example 14, (6′-Hydroxy-8′-oxo-8′H-spiro[cyclohexane-1,5′-indolizine]-7′-carbonyl)-L-alanine] | 1.0 g/dL | – | –
9 | C[C@@H](NC(=O)C1=C(O)C2(CCCC2)n2cccc2C1=O)C(=O)O [Example 12, (6′-Hydroxy-8′-oxo-8′H-spiro[cyclopentane-1,5′-indolizine]-7′-carbonyl)-D-alanine] | 0.8 g/dL | – | –
10 | Cc1nc(C(=O)NCC(=O)O)c(O)c2ccc(Oc3ccccc3)cc12 [Roxadustat, reference compound] | – | – | 1.7 g/dL
11 | CCOC(=O)[C@H](C)NC(=O)C1=C(O)C2(CCCC2)n2cccc2C1=O [Example 21, (6′-Hydroxy-8′-oxo-8′H-spiro[cyclopentane-1,5′-indolizine]-7′-carbonyl)-L-alanine ethyl ester] | 1.8 g/dL | > 10 µM | –
12 | O=C(O)CNC(=O)C1=C(O)C2(CCC2)n2cccc2C1=O [Example 6, (6′-Hydroxy-8′-oxo-8′H-spiro[cyclobutane-1,5′-indolizine]-7′-carbonyl)glycine] | 0.9 g/dL | – | –
13 | C[C@H](NC(=O)C1=C(O)C2(CC2)n2cccc2C1=O)C(=O)O [Example 2, (6′-Hydroxy-8′-oxo-8′H-spiro[cyclopropane-1,5′-indolizine]-7′-carbonyl)-L-alanine] | 0.6 g/dL | – | –
14 | CCOC(=O)CNC(=O)C1=C(O)C2(CCCCC2)n2cccc2C1=O [Example 46, (6′-Hydroxy-8′-oxo-8′H-spiro[cyclohexane-1,5′-indolizine]-7′-carbonyl)glycine ethyl ester] | – | > 10 µM | –
15 | O=C(O)CNC(=O)C1=C(O)C2(CCCCCC2)n2cccc2C1=O [Example 67, (6′-Hydroxy-8′-oxo-8′H-spiro[cycloheptane-1,5′-indolizine]-7′-carbonyl)glycine] | 0.8 g/dL | – | –
16 | O=C(O)CNC(=O)C1=C(O)C2(CCCC2)n2c(ccc2-c2ccccc2)C1=O [Example 24, (6′-Hydroxy-8′-oxo-3′-phenyl-8′H-spiro[cyclopentane-1,5′-indolizine]-7′-carbonyl)glycine] | 4.0 g/dL | – | –
17 | O=C(O)CNC(=O)C1=C(O)C2(CCCC2)n2ccc(C3CC3)c2C1=O [Example 62, (1′-cyclopropyl-6′-hydroxy-8′-oxo-8′H-spiro[cyclopentane-1,5′-indolizine]-7′-carbonyl)glycine] | 0.1 g/dL | – | –
18 | CC(C)(C)C(=O)OCOC(=O)CNC(=O)C1=C(O)C2(CCCCC2)n2cccc2C1=O [Example 22, (((6′-hydroxy-8′-oxo-8′H-spiro[cyclohexane-1,5′-indolizine]-7′-carbonyl)glycyloxy)methyl) pivalate] | – | > 10 µM | –
19 | COC(=O)CNC(=O)C1=C(O)C2(CCCC2)n2cccc2C1=O [Example 9, (6′-Hydroxy-8′-oxo-8′H-spiro[cyclopentane-1,5′-indolizine]-7′-carbonyl)glycine methyl ester] | 2.0 g/dL | > 10 µM | –
20 | O=C(O)CNC(=O)C1=C(O)C2(CC2)n2cccc2C1=O [Example 1, (6′-Hydroxy-8′-oxo-8′H-spiro[cyclopropane-1,5′-indolizine]-7′-carbonyl) glycine] | 1.0 g/dL | – | –
21 | C[C@H]1CC[C@@]2(CC1)C(O)=C(C(=O)NCC(=O)O)C(=O)c1cccn12 [Example 69, ((1,4-cis)-6′-hydroxy-4-methyl-8′-oxo-8′H-spiro[cyclohexane-1,5′-indolizine]-7′-carbonyl)glycine] | 0.7 g/dL | – | –
22 | C[C@H]1CC[C@]2(CC1)C(O)=C(C(=O)NCC(=O)O)C(=O)c1cccn12 [Example 68, ((1,4-trans)-6′-hydroxy-4-methyl-8′-oxo-8′H-spiro[cyclohexane-1,5′-indolizine]-7′-carbonyl)glycine] | 5.2 g/dL | – | –
23 | C[C@H](NC(=O)C1=C(O)C2(CCCC2)n2cccc2C1=O)C(=O)O [Example 11, (6′-Hydroxy-8′-oxo-8′H-spiro[cyclopentane-1,5′-indolizine]-7′-carbonyl)-L-alanine] | 2.0 g/dL | – | –
24 | O=C(O)CNC(=O)C1=C(O)C2(CCCCC2)n2cccc2C1=O [Example 13, (6′-Hydroxy-8′-oxo-8′H-spiro[cyclohexane-1,5′-indolizine]-7′-carbonyl)glycine] | 4.3 g/dL | – | –
